EP4786487A1, “PEPTIDE” (Peptidream Inc, priority 2023, dated 2025)
Read-outs that look alike come from different tables or passages of the source. Starred links: 1 amine or outer side, 2 acyl side, 3 side chain; linkers in the order of their positions; H or OH if unused. Positions of bridges follow the written chain, without caps; N, C: chain ends. Non-standard residues stand in square brackets, D forms with d. Residues, ends and D or L forms follow the SMILES beside them. *: point of attachment. X6 = CS(=O)(=O)c1ccc(-c2ccc(C[C@H](N[*:1])C(=O)[*:2])cc2)cc1; Phe(4-(4-pyridyl)) = N[C@@H](Cc1ccc(-c2ccncc2)cc1)C(=O)O; Phe(3-OCH2COOH) = N[C@@H](Cc1cccc(OCC(=O)O)c1)C(=O)O; Phe(4-COOH) = N[C@@H](Cc1ccc(C(=O)O)cc1)C(=O)O; Trp(7-aza) = N[C@@H](Cc1c[nH]c2ncccc12)C(=O)O; Piperazinyl(4-CH2COOH) = O=C(O)CN1CCN(*)CC1; Gly(decyl) = CCCCCCCCCC[C@H](N)C(=O)O; Gly(N(CH2)3COOH) = O=C(O)CCCNCC(=O)O; X1 = CCCCCCC[C@H](N[*:1])C(=O)[*:2]; NMeF = CN[C@@H](Cc1ccccc1)C(=O)O; 4Pal = N[C@@H](Cc1ccncc1)C(=O)O; NMeE = CN[C@@H](CCC(=O)O)C(=O)O; Cha = N[C@@H](CC1CCCCC1)C(=O)O; NMeD = CN[C@@H](CC(=O)O)C(=O)O; hSer = N[C@@H](CCO)C(=O)O; Carboxymethyl = O=C(O)C*; NMeA = CN[C@@H](C)C(=O)O; Bn = c1ccc(C*)cc1; Sar = CNCC(=O)O; X17 = CCCCC*; nBu = CCCC*

Tests used:
Format in all cases: cell-based
Myostatin [1] = biological target: T1, Myostatin (Homo sapiens, UniProt O14793); test: Reporter gene assay for myostatin signaling in HepG2 cell line, Evaluation Procedure (1), myostatin inhibition; settings: read-out: IC50 (Luciferase) Myostatin HepG2
T1 construct: active myostatin (also called mature myostatin) is a homodimer consisting of two C-terminal growth factor domains; purchased R&D systems 788-G8/CF
T1 sequence (O14793 267-375): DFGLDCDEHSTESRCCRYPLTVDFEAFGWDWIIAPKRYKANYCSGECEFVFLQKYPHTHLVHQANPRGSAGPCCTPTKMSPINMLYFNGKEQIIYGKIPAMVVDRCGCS
How it was run: (§1)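 HepG2 cells transfected with pGL3(CAGA)12-luciferase reporter, serum-starved in 0.1% BSA medium, then stimulated with myostatin or GDF-11 plus 4-fold peptide dilutions (0.006–100 nmol/L for myostatin, 0.12–2000 nmol/L for GDF-11) for 20–24 h at 37 °C. Luminescence read with One-Glo; IC50 calculated.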

Myostatin [2] = test: as above; settings: GDF-11 IC50 versus Myostatin IC50
How it was run: as §1

GDF-11 [3] = biological target: T2, GDF-11 (Homo sapiens, UniProt O95390); test: Reporter gene assay for myostatin signaling in HepG2 cell line, Evaluation Procedure (1), GDF-11 inhibition; settings: read-out: IC50 (Luciferase) GDF-11 HepG2
T2 construct: purchased R&D systems 1958-GD-G8/CF
T2 sequence (O95390 299-407): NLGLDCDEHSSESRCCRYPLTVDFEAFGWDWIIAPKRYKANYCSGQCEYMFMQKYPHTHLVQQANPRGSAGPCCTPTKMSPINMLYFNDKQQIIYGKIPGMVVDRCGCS
How it was run: as §1

Myostatin [4] = biological target: T1, Myostatin; test: HepG2 reporter gene assay, Evaluation Procedure (2): 2-concentrations assay, myostatin inhibition; settings: Myostatin 10 ng/mL, HepG2; for inhibition at 0.03 µM: peptide 30nM, read-out: Myostatin Inhibition 30nM; for inhibition at 0.1 µM: peptide 100nM, read-out: Myostatin Inhibition 100nM
How it was run: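 HepG2 cells (HB-8065, ATCC) carrying the transfected pGL3(CAGA)12-luc reporter plasmid were treated with myostatin (788-G8/CF, R&D systems) at a final concentration of 10 ng/mL plus peptide and incubated at 37°C, 5% CO2 for 20 to 24 hours. Luminescence was read after adding PBS mixed 1:1 with One-Glo substrate, and inhibition rate was calculated.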

GDF-11 [5] = biological target: T2, GDF-11; test: HepG2 reporter gene assay, Evaluation Procedure (2): 2-concentrations assay, GDF-11 inhibition; settings: GDF-11 10 ng/mL
How it was run: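 HepG2 cells carrying the transfected pGL3(CAGA)12-luc reporter, a pGL3 vector with luciferase placed downstream of 12 CAGA repeats, were stimulated with GDF-11 at a final 10 ng/mL together with test peptide. Blank wells received no GDF-11 and no peptide. Plates were incubated 20 to 24 hours at 37°C with 5% CO2. Luminescence from One-Glo substrate was read to calculate percent inhibition.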

SMILES	IC50 (Myostatin [1]; Method B: Myostatin 1 ng/mL)	Selectivity (Myostatin [2]; Method B)	IC50 (GDF-11 [3]; Method B: GDF-11 1 ng/mL)	inhibition at 0.03 µM (Myostatin [4])	inhibition at 0.1 µM (Myostatin [4])	IC50 (Myostatin [1]; Method A: Myostatin 10 ng/mL)	Selectivity (Myostatin [2]; Method A)	IC50 (GDF-11 [3]; Method A: GDF-11 10 ng/mL)	also measured
CCCCCCC[C@@H]1NC(=O)[C@H](Cc2ccccc2)N(C)C(=O)[C@H](CCCNC(=N)N)NC(=O)[C@H](Cc2ccc(C(=O)O)cc2)NC(=O)[C@H](Cc2cccc(OCC(=O)O)c2)NC(=O)CN(C)C(=O)[C@H]([C@@H](C)CC)NC(=O)[C@H](Cc2ccccc2)N(C)C(=O)[C@H](Cc2ccc(OCc3ccccc3)cc2)NC(=O)[C@H](Cc2c[nH]c3ccccc23)NC(=O)[C@H](C)NC(=O)[C@H](C)NC(=O)CSC[C@H](C(=O)N2CCN(CC(=O)O)CC2)NC(=O)[C@H](Cc2ccccc2)N(C)C(=O)[C@H](C)N(C)C1=O [Myostatin_99_v298] ({CH2CO}-AAWY(Bn)[NMeF]I[Sar][Phe(3-OCH2COOH)][Phe(4-COOH)]R[NMeF][X1][NMeA][NMeF][dC]-{Piperazinyl(4-CH2COOH)}; thioether N-15)	0.11 nM	62	6.8 nM	100%	100%	–	–	–	inhibition at 0.03 µM (GDF-11 [5]; HepG2, peptide 30nM, read-out: GDF11 Inhibition 30nM): 12%; inhibition at 0.1 µM (GDF-11 [5]; HepG2, peptide 100nM, read-out: GDF11 Inhibition 100nM): 55%
CCCCCCCCCC[C@@H]1NC(=O)[C@H](Cc2ccccc2)N(C)C(=O)[C@H](CCCNC(=N)N)NC(=O)[C@H](Cc2ccc(C(=O)O)cc2)NC(=O)[C@H](Cc2cccc(OCC(=O)O)c2)NC(=O)CN(C)C(=O)[C@H]([C@@H](C)CC)NC(=O)[C@H](Cc2ccccc2)N(C)C(=O)[C@H](Cc2ccc(O)cc2)NC(=O)[C@H](Cc2c[nH]c3ccccc23)NC(=O)[C@H](C)NC(=O)[C@H](C)NC(=O)CSC[C@H](C(=O)N2CCN(CC(=O)O)CC2)NC(=O)[C@H](Cc2ccccc2)N(C)C(=O)[C@H](CCC(=O)O)N(C)C1=O [Myostatin_99_v265] ({CH2CO}-AAWY[NMeF]I[Sar][Phe(3-OCH2COOH)][Phe(4-COOH)]R[NMeF][Gly(decyl)][NMeE][NMeF][dC]-{Piperazinyl(4-CH2COOH)}; thioether N-15)	0.1 nM	55	5.3 nM	91%	98%	–	–	–	–
CCCCCCCCCC[C@@H]1NC(=O)[C@H](CC2CCCCC2)NC(=O)[C@H](CCCNC(=N)N)NC(=O)[C@H](Cc2ccc(C(=O)O)cc2)NC(=O)[C@H](Cc2cccc(OCC(=O)O)c2)NC(=O)CN(C)C(=O)[C@H]([C@@H](C)CC)NC(=O)[C@H](Cc2ccccc2)N(C)C(=O)[C@H](Cc2ccc(O)cc2)NC(=O)[C@H](Cc2c[nH]c3ccccc23)NC(=O)[C@H](C)NC(=O)[C@H](C)NC(=O)CSC[C@H](C(=O)N2CCN(CC(=O)O)CC2)NC(=O)[C@H](Cc2ccccc2)N(C)C(=O)[C@H](CCC(=O)O)N(C)C1=O [Myostatin_99_v261] ({CH2CO}-AAWY[NMeF]I[Sar][Phe(3-OCH2COOH)][Phe(4-COOH)]R[Cha][Gly(decyl)][NMeE][NMeF][dC]-{Piperazinyl(4-CH2COOH)}; thioether N-15)	0.16 nM	181	29 nM	26%	72%	–	–	–	–
CCCCOCC[C@@H]1NC(=O)[C@H](Cc2ccccc2)N(C)C(=O)[C@H](CCCNC(=N)N)NC(=O)[C@H](Cc2ccc(C(=O)O)cc2)NC(=O)[C@H](Cc2ccncc2)NC(=O)CN(C)C(=O)[C@H]([C@@H](C)CC)NC(=O)[C@H](Cc2ccccc2)N(C)C(=O)[C@H](Cc2ccc(O)cc2)NC(=O)[C@H](Cc2c[nH]c3ccccc23)NC(=O)[C@H](C)NC(=O)CN(CCCC(=O)O)C(=O)CSC[C@H](C(=O)O)NC(=O)[C@H](Cc2ccccc2)N(C)C(=O)[C@H](C)N(C)C1=O [Myostatin_99_v227] ({CH2CO}-[Gly(N(CH2)3COOH)]AWY[NMeF]I[Sar][4Pal][Phe(4-COOH)]R[NMeF][hSer](nBu)[NMeA][NMeF][dC]-OH; thioether N-15)	–	–	–	–	–	20.8 nM	33	683 nM	–
CCCCCCC[C@@H]1NC(=O)[C@H](Cc2ccccc2)N(C)C(=O)[C@H](CCCNC(=N)N)NC(=O)[C@H](Cc2ccc(C(=O)O)cc2)NC(=O)[C@H](Cc2ccncc2)NC(=O)CN(C)C(=O)[C@H]([C@@H](C)CC)NC(=O)[C@H](Cc2ccccc2)N(C)C(=O)[C@H](Cc2ccc(O)cc2)NC(=O)[C@H](Cc2c[nH]c3ncccc23)NC(=O)[C@H](C)NC(=O)CN(CCCC(=O)O)C(=O)CSC[C@H](C(=O)O)NC(=O)[C@H](Cc2ccccc2)N(C)C(=O)[C@H](C)N(C)C1=O [Myostatin_99_v170] ({CH2CO}-[Gly(N(CH2)3COOH)]A[Trp(7-aza)]Y[NMeF]I[Sar][4Pal][Phe(4-COOH)]R[NMeF][X1][NMeA][NMeF][dC]-OH; thioether N-15)	–	–	–	–	–	3.3 nM	65	215 nM	–
CCCCCCCCCC[C@@H]1NC(=O)[C@H](Cc2ccccc2)N(C)C(=O)[C@H](CCCNC(=N)N)NC(=O)[C@H](Cc2ccc(C(=O)O)cc2)NC(=O)[C@H](Cc2cccc(OCC(=O)O)c2)NC(=O)[C@H]2CCCN2C(=O)[C@H]([C@@H](C)CC)NC(=O)[C@H](Cc2ccccc2)N(C)C(=O)[C@H](Cc2ccc(O)cc2)NC(=O)[C@H](Cc2ccc(-c3ccc(S(C)(=O)=O)cc3)cc2)NC(=O)[C@H](C)NC(=O)[C@H](C)NC(=O)CSC[C@H](C(=O)N2CCN(CC(=O)O)CC2)NC(=O)[C@H](Cc2ccccc2)N(C)C(=O)[C@H](CCC(=O)O)N(C)C1=O [Myostatin_99_v343] ({CH2CO}-AA[X6]Y[NMeF]I[dP][Phe(3-OCH2COOH)][Phe(4-COOH)]R[NMeF][Gly(decyl)][NMeE][NMeF][dC]-{Piperazinyl(4-CH2COOH)}; thioether N-15)	–	–	–	–	–	–	–	–	IC50 (Myostatin [1]; Method C: Myostatin 1.5 ng/mL): 0.1 nM; Selectivity (Myostatin [2]; Method C): 137.1; IC50 (GDF-11 [3]; Method C: GDF-11 1 ng/mL): 14.3 nM
CCCCCOC[C@@H]1NC(=O)[C@H](Cc2ccccc2)N(C)C(=O)[C@H](CCCNC(=N)N)NC(=O)[C@H](Cc2ccc(C(=O)O)cc2)NC(=O)[C@H](Cc2ccncc2)NC(=O)CN(C)C(=O)[C@H]([C@@H](C)CC)NC(=O)[C@H](Cc2ccccc2)N(C)C(=O)[C@H](Cc2ccc(O)cc2)NC(=O)[C@H](Cc2c[nH]c3ccccc23)NC(=O)[C@H](C)NC(=O)CN(CCCC(=O)O)C(=O)CSC[C@H](C(=O)O)NC(=O)[C@H](Cc2ccccc2)N(C)C(=O)[C@H](C)N(C)C1=O [Myostatin_99_v226] ({CH2CO}-[Gly(N(CH2)3COOH)]AWY[NMeF]I[Sar][4Pal][Phe(4-COOH)]R[NMeF]S(X17)[NMeA][NMeF][dC]-OH; thioether N-15)	–	–	–	–	–	10.2 nM	391	3990 nM	–
CC[C@H](C)[C@@H]1NC(=O)[C@H](Cc2ccccc2)N(C)C(=O)[C@H](Cc2ccc(O)cc2)NC(=O)[C@H](Cc2ccc(-c3ccncc3)cc2)NC(=O)[C@H](C)NC(=O)[C@H](CC(=O)O)N(C)C(=O)CSC[C@H](C(=O)O)NC(=O)[C@H](Cc2ccccc2)N(C)C(=O)[C@H](C)N(C)C(=O)[C@H](CC(C)C)NC(=O)[C@H](Cc2ccccc2)N(C)C(=O)[C@H](CCCNC(=N)N)NC(=O)[C@H](Cc2ccc(OCC(=O)O)cc2)NC(=O)[C@H](Cc2cccc(OCC(=O)O)c2)NC(=O)CN(C)C1=O [Myostatin_99_v96] ({CH2CO}-[NMeD]A[Phe(4-(4-pyridyl))]Y[NMeF]I[Sar][Phe(3-OCH2COOH)]Y(Carboxymethyl)R[NMeF]L[NMeA][NMeF][dC]-OH; thioether N-15)	–	–	–	–	–	88.8 nM	296	26300 nM	–
